These results are taken from US20050234015A1, “Low molecular weight heparin salt with triethanolamine useful as therapeutic-antitrombotic agent of local delivery, procedures for preparing them, process for elimination of hygroscopicity of heparin salt, pharmaceutical compositions for local use in antithrombotic therapy and uses therein” (priority 2004, published 2005).

Series [1] in a line: anticoagulant strength of injectable heparin according to European Pharmacopoeia 2002 (EP strength). It is filed as biochemical. As to the method: (§1) 7) Analytical Techniques Used • The anticoagulant strength of injectable heparin was determined according to European Pharmacopoeia 2002 (EP strength) and to USP 26 (USP strength) • Anti Xa and anti ha strengths were determined according to the literature of low molecular weight heparins (European Pharmacopoeia 2002) • Distribution of molecular weights and mean ponderal molecular weight were determined according to the literature of low molecular weight heparins (European Pharmacopoeia 2002), therefore, in the run buffer, TEA is replaced by Na^+ and the data obtained then pertain to polysaccharide sodium salt and not to TEA salt. • Triethanolamine is dosed by potentiometric titration.

Series [2] deals with Xa. As to the kind of experiment: anti Xa strength, European Pharmacopoeia 2002 Low Molecular Mass Heparin. In kind it is biochemical. As to the method: (§2) The anti Xa and anti IIa biological strengths were measured according to the European Pharmacopoeia EP2002; “Low Molecular Mass Heparin”, as well as the mean molecular weights (weighed average Mw) and the molecular weight distribution. Moreover, the standards and gages are those strictly cited in the mentioned literature. It is noted that in the run buffer for the chromatographic test by HPLC (Na2SO4, 0.2M pH 5.0) the TEA is replaced by N^a+ whereby the declared value is that of the sodium polysaccharide fraction and not the one of the LMWH-TEA salt.
as §1

Series [3] has as its target T1, IIa (Homo sapiens, UniProt P00734). As to the kind of experiment: anti IIa strength, European Pharmacopoeia 2002 Low Molecular Mass Heparin. In kind it is biochemical. As to the method: as §2, §1
Series [4] relates to experimental thrombosis in the tail of the test rat. The series is described as follows: κ-carrageenan rat tail thrombosis model, local cream treatment. It is filed as in vivo, Wister rats (female). The settings on record: 1000 u antiXa/gram, compared with local heparin and LMWH sodium salt creams. The source says:
With such criteria, Wister rats (female) raised in the laboratory and sanitarily controlled were used as test mammal.
Particularly, the thrombosis model developed consists of generating an experimental thrombosis in the tail of the test rat by intravenous injection (right caudal vein) of a thrombogenic substance such as κ-carrageenan. Without treatment, the tail of the animal totally forms thrombus without remission over time and ends up with necrosis after 3-4 days.
Particularly, this test was carried out according to the general outlines in Beckmeier et al, Agents and Actions, 16, 446 (1985), as follows:
a. Animals: female rats of 200-300 grams weight.
b. Thrombosing Solution: κ carrageenan Type II solution (Sigma C 1263) 1 mg/ml in sterile physiologic solution. 1 ml /kg of animal (right caudal vein of the tail) is injected (0.25 ml).
c. Thrombus induction: a tourniquet is placed near the tail base (15 cm from the end thereof) which was previously shaved. After 1 minute a thrombosing solution is injected and the animal tail is immediately immersed for 30 seconds in ice water, water is removed, it is dried and the tourniquet is kept for an additional 30 seconds. Then, the animal is kept for 2 minutes in a chamber at 10° C.
d. […]

Series [5] can be described thus: hygroscopicity of the lyophilized product (observation). In kind it is physicochemical. The settings on record: lyophilized solid. The source says:
The salt obtained from the reaction of the triethanolamine (TEA) with the low molecular weight heparin (LMWH) is an amber colored substance, with a waxy appearance, extremely difficult to manipulate due to its high hygroscopicity. These characteristics of the LMWH-TEA salt make extremely difficult its precise dosage in the preparation of the pharmaceutical end products (creams, gels, ointments).

In series [6] the test system is Xa. The following applies: LMWH sodium salt by radical fragmentation methods, European Pat. 268885, U.S. Pat. No. 4,977,250; cited from earlier work.
In series [7] the target is T1, IIa. The settings on record: LMWH sodium salt by radical fragmentation methods, European Pat. 268885, U.S. Pat. No. 4,977,250; cited from earlier work.
Where [8] appears, read: Example 3 comparison: LMWH-TEA of Example 2 vs lyophilizate with mannitol (60:40).
[9] abbreviates: theoretical calculation: 100 g LMWH-Na = 167 g LMWH-TEA.

Like-named read-outs stand apart in the source and are kept apart here.

On to heparin [Injectable Heparin], for which the “EP Strength” value in series [1] (starting injectable heparin of Example 1) was determined as 182 iu/mg; in series [1] (starting injectable heparin of Example 2) it was 180 iu/mg.

Turning to “low molecular weight heparin salt with triethanolamine [LMWH-TEA]”, the “anti Xa Strength” value was determined as 50 iu/mg in the series with Xa [2] (setting [8]); 51 iu/mg in the series with Xa [2] (product of Example 1 (HClO depolymerization, diafiltration with TEA)); 50 iu/mg with Xa [2] (product of Example 2 (H2O2/FeSO4 depolymerization, ion exchange resin, TEA)). In addition, the “anti Xa, Experimental” value with Xa [2] (summary of experimental data) was 50-51 iu/mg. The “anti Xa, Theoretical” value in the series on Xa [2] (setting [9]) is on record as 54 iu/mg. For the same substance, the “anti IIa Strength” value at IIa [3] (setting [8]), at IIa [3] (product of Example 1) and at IIa [3] (product of Example 2) was 24 iu/mg throughout. The “anti IIa, Experimental” value at IIa [3] (summary of experimental data) is listed as 24 iu/mg. Moreover, the “anti IIa, Theoretical” value at IIa [3] (setting [9]) was 24 iu/mg. The “efficacy against thrombosis, in words” value in series [4] is recorded as “highly significant restitutive activity”. Further, the hygroscopicity entry in series [5] was “highly hygroscopic”.

Consider “low molecular weight heparin sodium salt [LMWH Na]”, for which the “anti Xa Strength” value in the series on Xa [6] is on record as roughly 90 iu/mg. The “anti IIa Strength” value on IIa [7] was roughly 40 iu/mg.
